Legend:
Type in all cases: cell-based
[1] = tested on: NHDF cells (normal human dermal fibroblasts); test: MTT cell proliferation assay, NHDF cells; conditions: 72 h, non-tumoral cells, read-out: Estimated IC50, NHDF
[2] = tested on: LNCaP cells (androgen-dependent prostatic cancer); test: MTT cell proliferation assay, LNCaP cells; conditions: 72 h
[3] = tested on: all cell lines (NHDF, PNT1A, N27, LNCaP, PC-3, MCF-7); test: MTT preliminary screening, all cell lines taken together; conditions: 50 µM, 72 h
Procedure: LNCaP, PC-3, MCF-7, PNT1A, N27, and NHDF cells were obtained from the American Type Culture Collection (ATCC; Manassas, VA, USA) and were cultured in 75 cm^2 culture flasks at 37 °C in a humidified air incubator with 5% CO2. LNCaP, PC-3, PNT1A, and N27 cells, respectively, were cultured in RPMI 1640 medium (Sigma-Aldrich, Inc. St. Louis, MO, USA) with 10% fetal bovine serum (FBS; Sigma-Aldrich, Inc. St. Louis, MO, USA) and 1% of the antibiotic mixture of 10,000 U/mL penicillin G and […] streptomycin (Sp, Sigma-Aldrich, Inc. St. Louis, MO, USA). MCF-7 cells were cultured in DMEM medium (Sigma-Aldrich, Inc. St. Louis, MO, USA) supplemented with 10% fetal bovine serum (FBS; Sigma-Aldrich, Inc. St. Louis, MO, USA) and 1% antibiotic/antimycotic (10,000 U/mL penicillin G, […] streptomycin, and 25 µg/mL amphotericin B: Ab, Sigma-Aldrich, Inc. St. Louis, MO, USA). Finally, NHDF cells were cultured in RPMI 1640 medium supplemented with 10% FBS, 2 mM L-glutamine, 10 mM HEPES, 1 mM sodium pyruvate, and 1% of the antibiotic/antimycotic Ab, and these cells were used in passages 10th to 14th. For all cell types, the medium was renewed every 2 days until cells nearly reached the confluence state. When cells reach approximately 90–95% confluence, they are gently detached by trypsinization (trypsin-EDTA solution: 0.125 g/L of trypsin and 0.02 g/L of EDTA). Before each experiment, viable cells were counted in a Neubauer chamber by a trypan-blue exclusion assay and adequately diluted in the appropriate complete cell culture medium.
All tested compounds were dissolved in dimethyl sulfoxide (DMSO; Sigma-Aldrich, Inc. St. Louis, MO, USA) at a concentration of 10 mM and stored at 4 °C. From the mother-solutions, the diluted solutions of the compounds, in different concentrations, were prepared in the respective complete culture medium before each experiment.
After reaching a confluence state, cells were trypsinized and counted by the trypan-blue exclusion assay and then seeded with an initial density of 2 × 10^4 cells/mL in 96-well culture plates (Nunc, Apogent, Denmark) and left to adhere and grow for 48 h. Subsequently, the medium was removed, and the cells were treated with compound solutions (10 and 50 µM for preliminary studies and 0.01, 0.1, 1, 10, 50, and 100 µM for concentration-response studies) in complete culture medium for 72 h. 5-Fluorouracil (5-FU) was used as a positive control, and untreated cells were used as the negative control. Compounds leading to cell proliferation relative to control clearly below 50%, at 10 µM, or clearly below 25%, at 50 µM, in the screening studies were selected to concentration-response studies in tumoral cell lines. Each experiment was performed in quadruplicate and independently at least two times. The in vitro antiproliferative effects were evaluated by the MTT assay (Sigma-Aldrich, Inc. St. Louis, MO, USA). After the incubation period, the medium was removed, and 100 µL of phosphate buffer saline (PBS, NaCl 137 mM; KCl 2.7 mM; Na2HPO4 10 mM; and KH2PO4 1.8 mM in deionized water with a pH adjusted to 7.4) were used to wash the cells. Then, 100 µL of the MTT solution (5 mg/mL) was prepared in the appropriate serum-free medium and added to each well, followed by incubation for 4 h at 37 °C. Hereafter, the MTT containing medium was removed, and the formazan crystals were dissolved in DMSO. Then, the absorbance was measured at 570 nm using a xMarkTM microplate spectrophotometer from BIO-RAD Laboratories. Cell viability values were expressed as percentages relative to the negative control.

MCF-7 cells = test: PI incorporation (propidium iodide staining); conditions: 48 h
Procedure: After 48 h of being seeded at the same conditions explained in the previous (Section 2.2.4), MCF-7 cells were treated with the steroidal derivatives 19 and 5-FU at 1 and 10 µM and maintained in culture for 48 h. Untreated cells were also used as a negative control. Subsequently, cells were incubated with 20 µL/per well of a propidium iodide solution (PI; 1 mg/mL in PBS; Sigma-Aldrich Co. LLC) for 25 min at 37 °C. Then, the medium was removed, and the cells were fixed with 10% formalin for 15 min at room temperature. Cells were washed three times with PBS and incubated with 30 µL/per coverslip of Hoechst-33342 (1:500) for 10 min. After incubation, cells were washed three times with PBS. Coverslips were mounted on a drop of the fluoroshield mounting medium on a microscope slide, left to dry for 24 h, and then visualized in a Zeiss Axio Imager A1 microscope with the 40× objective.

IC50 ([2]; MTT, tumoral cells, read-out: Estimated IC50, LNCaP): 12.8 µM
percentage of PI incorporation compared with the positive control (5-FU) (MCF-7 cells; MCF-7, 10 µM): about three times
Substance: (E)-16-(2,3-Dichlorobenzylidene)-3-hydroxy-5α ,6α -epoxy-10,13-dimethyl-1,3,4,7,8,9,10,11,12,13,15,16-dodecahydro-2H-cyclopenta[α ]phenanthren-17(14H)-one [Compound 19]
IC50 [1]: 18.7 µM
effect on LNCaP cell proliferation ([2]; LNCaP, 10 µM): no relevant effects
decrease in LNCaP cell proliferation ([2]; LNCaP, 50 µM): higher than 75%
relative cell proliferation [3]: ≤ 50%
PI-positive cells relative to the negative control (MCF-7 cells; MCF-7, 1 µM): no significant effect
PI-positive cells relative to the negative control (MCF-7 cells; MCF-7, 10 µM): significantly increase

Reference: PMC10045663, “Synthesis, In Vitro Biological Evaluation of Antiproliferative and Neuroprotective Effects and In Silico Studies of Novel 16E-Arylidene-5α,6α-epoxyepiandrosterone Derivatives” (Biomedicines, 2023)
